“Also recorded” adds a separate entry of the source. Where two headings read alike, the source gives them in different places.
Assays:
[1] = system: U251MG glioblastoma cells; assay: CyQuant cell viability/proliferation assay, U251MG; format: cell-based, human; settings: for Cell-type selectivity of growth inhibition, in words: U251MG versus other cells incl. NIH3T3, Table 1/FIG. 2 numbering
Description: (§1) The cell viability assay was performed as previously reported (Zhang X, et al. (2010)). Briefly, a 10 millimolar concentration stock solution in dimethylsulfoxide (DMSO) of the tested molecule was first prepared. Next, the stock solution was diluted down to various working solutions in water. Thus, a formulation of the tested compound in a DMSO/water mixture was used to test for cell viability. (A novel small-molecule disrupts STAT3 SH2 domainphosphotyrosine interactions and STAT3-dependent tumor processes, Biochem Pharmacol 79:1398-1409; Zhao W, Jaganathan S, & Turkson J (2010), A cell-permeable STAT3 SH2 domain mimetic inhibits STAT3 activation and induces antitumor cell effects in vitro. J Biol Chem. 285:35855-35865). Cells (U251MG, MDA-MB-231 or NIH3T3) were obtained from ATCC (Manassas, Va.) and were cultured in 96-well plates at 2,000 cells per well for 24 h and were treated with compounds (5 micromolar concentration) for 72 h. Cell viabilty was determined using CyQuant assay, according to the manufacturer's (Invitrogen, CA, USA) instructions. Relative viability of the treated cells was normalized to the DMSO-treated control cells.

[2] = system: MDA-MB-231 breast cancer cells; assay: CyQuant cell viability/proliferation assay, MDA-MB-231; format: cell-based, human; settings: Homo sapiens, MDA-MB-231; at 5 μM, 72 h; Table 3 numbering (isolates 1-16)
Description: as §1

[3] = system: intracellular glutathione; settings: literature reports, cited from earlier work
[4] = system: normal NIH3T3 mouse fibroblasts; assay: CyQuant cell viability/proliferation assay, NIH3T3; format: cell-based; settings: Mus musculus, NIH3T3; at 5 μM, 72 h; Table 3 numbering (isolates 1-16); read-out: NIH-3T3 % inhibition
Description: as §1

[5] = system: GSH levels in U251 MG cells; assay: Glutathione (GSH) levels in U251 MG cells
Description: Reduced glutathione (GSH) and oxidized glutathione disulfide (GSSG) levels were assayed using a commercially available kit (Cayman Chemical, Ann Arbor, Mich.) and following the manufacturer's instructions.

[6] = system: pY705STAT3 in U251MG or MDA-MB-231 cells; assay: Immunoblotting of pY705STAT3 in treated tumor cells; settings: 5 micromolar, U251MG or MDA-MB-231
Description: Positions of STATs:DNA complexes or proteins in gel are labeled; control lanes (0) represent nuclear extracts or whole-cell lysates prepared from 0.05% DMSO-treated cells. Data are representative of at least three to four independent determinations.
Lysates of equal total protein prepared in the lysis buffer (50 mM Hepes, pH 7.5, 150 mM NaCl, 2 mM EDTA, 1% Triton X-100, 0.1% SDS), were subjected to IP or Western blotting analysis. Antibodies against STAT3, pY705STAT3, Src, pY416Src, Erk1/2, and pT202/Y204Erk1/2 and GAPDH (Cell Signaling Technology, Danvers, Mass.), and anti-β-actin, and HSP105 (Santa Cruz Biotechnology, Dallas, Tex.) are from the designated sources.
Whole-cell lysates were prepared in boiling SDS sample loading buffer to extract total proteins, as reported previously. […] Nitrocellulose membranes were probed with primary antibodies, and the detection of horseradish peroxidase-conjugated secondary antibodies by enhanced chemiluminescence (Amersham) was performed. Antibodies used were monoclonal anti-pYSTAT3 and anti-STAT3 antibodies (Cell Signaling Technology, Danvers, Mass.).

[7] = system: STAT3 tyrosine phosphorylation; settings: Butturini et al. 2011; cited from earlier work

C=C1C(=O)O[C@@H]2/C=C(\C)CC/C=C(\C)CC[C@@H]12 [costunolide, reference compound]
inhibition at 5 µM ([1]; Homo sapiens, U-251, at 5 μM, 72 h, Table 3 numbering (isolates 1-16)): 17.5%
Cell-type selectivity of growth inhibition, in words [1]: generally toxic to U251MG and normal NIH3T3
Cell-type selectivity of growth inhibition, in words ([1]; listed as costinulide): non-specfically active against glioma U251MG and normal NIH3T3 mouse fibroblasts
inhibition at 5 µM [2]: 10.5%
Intracellular glutathione content [3]: rapid drop in intracellular glutathione content
Intracellular glutathione content ([3]; listed as costinulide): suppress the intracellular glutathione (GSH) pool
inhibition at 5 µM [4]: 41.6%
Effect on GSH levels [5]: suppressed GSH levels
Effect on pY705STAT3 / STAT3 activity (immunoblot), in words ([6]; 0-24 h, Table 1/FIG. 2 numbering, listed as costinulide): little effect on STAT3 activity; also recorded: minimal effects on pY705STAT3
Inhibition of pY705STAT3 (immunoblot), in words ([6]; Table 3 numbering (isolates 1-16)): negligible or weak
Tyrosine-phosphorylation of STAT3 in cells treated with IL-6 [7]: inhibited the tyrosine-phosphorylation of STAT3
